This note sets out measurements from ChEMBL document CHEMBL1201862, “PubChem BioAssay data set” (2004).

SMILES strings stand for the structures.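 Interpolation was linear, between the two tested concentrations surrounding the appropriate level; five concentrations were tested over 48 hours in 96-well plates. At the GI50, growth is halved.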 Active and inactive are the calls of the source. Cut-off read from the data, not from the text of the source: active = GI50 up to about 1.1 µM and inactive = higher.

For orientation: GI50 means the concentration that inhibits growth by half.

Among the test systems are DU-145; RXF 393; SF-539; OVCAR-5; HCT-15; HOP-92; NCI-H23; MOLT-4; MDA-MB-231; NCI-H226; NCI-H522; HT-29; UACC-257; SK-OV-3; Hs-578T; ACHN; HCT-116; A498; OVCAR-3.
Common to all, as to assay: DTP human tumour cell line panel, 48 h

As for `C=CCNC(=O)NC1=CSC2=NC(=O)C3(NN12)c1ccccc1-c1ccccc13`, the GI50 in the test with DU-145 was > 10 µM (inactive); in the test on RXF 393, > 10 µM (inactive); with SF-539, > 10 µM (inactive); with OVCAR-5 it was > 10 µM (inactive); with HCT-15, over 10 µM; in the test with HOP-92, > 10 µM (inactive). Also, the GI50 in the test on NCI-H23, in the test with MOLT-4, in the test on MDA-MB-231, in the test with NCI-H226, in the test on NCI-H522 and with HT-29 was > 10 µM (inactive) throughout. In addition, the GI50 in the test on UACC-257 is > 10 µM (inactive); in the test on SK-OV-3 it was > 10 µM (inactive); with Hs-578T it was 4.16 µM (inactive); in the test on ACHN, > 10 µM (inactive); in the test with HCT-116, > 10 µM (inactive).
For the compound `COc1cc([C@@H]2c3cc4c(cc3[C@@H](NC(=O)c3ccccc3)C3COC(=O)[C@@H]32)OCO4)cc(OC)c1O` (some centres undefined), the GI50 was 6.1 µM (inactive) in the test with A498; 7.31 µM (inactive) in the test with RXF 393; 6.14 µM (inactive) in the test with SF-539; 49.9 µM (inactive) with OVCAR-5; 9.84 µM with HCT-15; 20.8 µM (inactive) in the test with OVCAR-3. For the same compound, the GI50 in the test on HOP-92 was 8.39 µM (inactive); in the test with NCI-H23, 2.77 µM (inactive); in the test on MOLT-4 it was 0.491 µM (active); with NCI-H226, 1.53 µM (inactive); in the test with NCI-H522, 0.423 µM (active); in the test with HT-29 it was 3.18 µM (inactive). Besides, the GI50 in the test on UACC-257 was 2.99 µM (inactive); in the test on SK-OV-3, 6.62 µM (inactive); in the test with ACHN, 1.45 µM (inactive); in the test with HCT-116, 5.42 µM (inactive).
Take `C#CCNC(Cc1ccccc1)C(=O)O` (centres undefined): the GI50 in the test on DU-145 is > 100 µM (inactive); in the test with A498, > 100 µM (inactive); in the test on RXF 393, > 100 µM (inactive); in the test with OVCAR-5, > 100 µM (inactive); in the test on HCT-15, over 100 µM; in the test on OVCAR-3, > 100 µM (inactive). The GI50 in the test on HOP-92, in the test on NCI-H23, with MOLT-4, in the test with MDA-MB-231, with NCI-H226 and in the test with NCI-H522 was > 100 µM (inactive) throughout. In addition, the GI50 in the test on HT-29, in the test on UACC-257, with SK-OV-3, with Hs-578T, with ACHN and in the test on HCT-116 was > 100 µM (inactive) each time.
In the case of `CCN(CC)CCOC(c1ccccc1)c1ccccc1.CCOC(=O)Nc1ccc(S(=O)(=O)NCCCl)cc1.CCOC(=O)Nc1ccc(S(=O)(=O)NCCCl)cc1.Nc1ccc(C(=O)O)c(O)c1`, the GI50 in the test on A498 is > 100 µM (inactive); in the test on RXF 393, > 100 µM (inactive); in the test with SF-539, > 100 µM (inactive); in the test on OVCAR-5 it was > 100 µM (inactive); in the test on HCT-15, over 100 µM; with OVCAR-3, > 100 µM (inactive). The GI50 with HOP-92, in the test with NCI-H23, in the test with MOLT-4, in the test with NCI-H226, in the test with NCI-H522 and in the test on HT-29 was > 100 µM (inactive) each time. Moreover, the GI50 in the test with UACC-257, with SK-OV-3, with ACHN and in the test with HCT-116 was > 100 µM (inactive) in each case.
Consider `O=C1C=CC2(C=C1)CCNC1=C2C(=O)c2ccccc2C1=O`, for which the GI50 in the test on A498 is > 100 µM (inactive); in the test with RXF 393 it was > 100 µM (inactive); in the test with SF-539, > 100 µM (inactive); in the test with OVCAR-5, > 100 µM (inactive); with HCT-15 it was over 100 µM; in the test on OVCAR-3, 28.5 µM (inactive). Further, the GI50 in the test with HOP-92, with NCI-H23, with MOLT-4, in the test on NCI-H226, with NCI-H522 and in the test on HT-29 was > 100 µM (inactive) in each case. Besides, the GI50 is 50 µM (inactive) with UACC-257, > 100 µM (inactive) in the test on SK-OV-3, > 100 µM (inactive) in the test with ACHN and > 100 µM (inactive) in the test on HCT-116.
In the case of `Cc1oc2c(C)c3oc(=O)cc(C)c3cc2c1CNC(=O)[C@@H]1OCCOCCOCCOCCOCCOC1C(=O)O` (some centres undefined), the GI50 in the test on A498 was > 100 µM (inactive); with RXF 393, > 100 µM (inactive); with SF-539, > 100 µM (inactive); with OVCAR-5, > 100 µM (inactive); with HCT-15 it was over 100 µM; in the test on OVCAR-3, > 100 µM (inactive). Further, the GI50 in the test with HOP-92, in the test on NCI-H23, in the test with MOLT-4, with NCI-H226, with NCI-H522 and in the test on HT-29 was > 100 µM (inactive) each time. Moreover, the GI50 in the test on UACC-257, with SK-OV-3, with ACHN and in the test on HCT-116 was > 100 µM (inactive) in each case.
As to `C/C(=N\[N+](C)(C)C)C(c1ccccc1)C1(c2ccccc2)C(c2ccccc2)=C1c1ccccc1` (centres undefined), the GI50 is > 100 µM (inactive) with A498; 22 µM (inactive) in the test with RXF 393; 37.5 µM (inactive) in the test on SF-539; > 100 µM (inactive) in the test with OVCAR-5; 36.9 µM in the test with HCT-15; > 100 µM (inactive) in the test with OVCAR-3. Also, the GI50 is 50.9 µM (inactive) in the test on HOP-92; > 100 µM (inactive) in the test with NCI-H23; > 100 µM (inactive) in the test with MOLT-4; 19.4 µM (inactive) in the test on NCI-H226; > 100 µM (inactive) in the test on NCI-H522; > 100 µM (inactive) with HT-29. Moreover, the GI50 is > 100 µM (inactive) with UACC-257, > 100 µM (inactive) in the test on SK-OV-3, 88.1 µM (inactive) with ACHN and > 100 µM (inactive) in the test with HCT-116.
For the compound `c1ccc2c3c([nH]c2c1)[C@H]1C2CCCCN2CN1CC3` (some centres undefined), the GI50 in the test on A498 is > 100 µM (inactive); in the test on RXF 393, 89.9 µM (inactive); in the test with SF-539, > 100 µM (inactive); in the test on OVCAR-5, > 100 µM (inactive); in the test with HCT-15, over 100 µM; with OVCAR-3, > 100 µM (inactive). The GI50 in the test on HOP-92 was > 100 µM (inactive); in the test with NCI-H23, > 100 µM (inactive); in the test with MOLT-4, > 100 µM (inactive); with NCI-H522 it was > 100 µM (inactive); with HT-29, 81.7 µM (inactive); with UACC-257 it was > 100 µM (inactive). The GI50 in the test with SK-OV-3, in the test on ACHN and in the test on HCT-116 was > 100 µM (inactive) each time.
On to `CC1=NN(C(=O)c2ccc(Cl)cc2)C(=O)/C1=C/c1cccc(O)c1`, for which the GI50 was > 100 µM (inactive) in the test with A498; > 100 µM (inactive) in the test on RXF 393; > 100 µM (inactive) in the test with SF-539; > 100 µM (inactive) in the test with OVCAR-5; over 100 µM with HCT-15; > 100 µM (inactive) with OVCAR-3. The GI50 in the test on HOP-92, with NCI-H23, in the test with MOLT-4, with NCI-H226, in the test with NCI-H522 and in the test on HT-29 was > 100 µM (inactive) in each case. Further, the GI50 in the test with UACC-257, in the test with SK-OV-3, with ACHN and in the test with HCT-116 was > 100 µM (inactive) throughout.
`CC1=NN(c2nc(N)nc(CF)n2)C(C)(C)C1`: the GI50 with DU-145 was > 100 µM (inactive); in the test with A498, > 100 µM (inactive); with RXF 393, > 100 µM (inactive); with SF-539 it was > 100 µM (inactive); in the test on HCT-15, over 100 µM; in the test with HOP-92 it was > 100 µM (inactive). The GI50 in the test on NCI-H23, with MOLT-4, in the test with MDA-MB-231, in the test with NCI-H226, in the test with HT-29 and with UACC-257 was > 100 µM (inactive) throughout. The GI50 with SK-OV-3, in the test with Hs-578T, in the test on ACHN and in the test with HCT-116 was > 100 µM (inactive) each time.
In the case of `Cc1ccc(C(=O)O)cc1NC(=O)c1cc(/C=C/c2ccccc2)[nH]c(=S)n1`, the GI50 with A498 was > 100 µM (inactive); in the test with RXF 393 it was > 100 µM (inactive); in the test with SF-539, > 100 µM (inactive); in the test on OVCAR-5, > 100 µM (inactive); in the test on HCT-15, over 45 µM; with OVCAR-3, > 100 µM (inactive). Further, the GI50 with HOP-92 was > 100 µM (inactive); in the test with NCI-H23 it was > 100 µM (inactive); in the test on MOLT-4, > 100 µM (inactive); in the test with NCI-H226, > 100 µM (inactive); with NCI-H522 it was > 100 µM (inactive); in the test with HT-29, > 64.4 µM (inactive). The GI50 is > 100 µM (inactive) with UACC-257, > 100 µM (inactive) in the test on SK-OV-3, > 89.9 µM (inactive) in the test with ACHN and > 37.8 µM (inactive) in the test with HCT-116.
Take `N=C(N)C1=C(O)NC(=O)N(C2CCCCC2)C1`: the GI50 in the test on A498 is > 100 µM (inactive); in the test on RXF 393, > 100 µM (inactive); in the test with SF-539, > 100 µM (inactive); with OVCAR-5, > 100 µM (inactive); in the test on HCT-15, over 100 µM; with OVCAR-3 it was > 100 µM (inactive). Further, the GI50 in the test with HOP-92, with NCI-H23, with MOLT-4, in the test with NCI-H226, in the test on NCI-H522 and in the test on HT-29 was > 100 µM (inactive) each time. Also, the GI50 in the test with UACC-257, in the test with SK-OV-3, in the test on ACHN and in the test on HCT-116 was > 100 µM (inactive) in each case.
